In patent publication US8927500B2, “Peptidomimetic macrocycles” (Aileron Therapeutics, Inc., priority 2012, dated 2015):
Where a SMILES comes first, the peptide text is derived from it. Bridges are numbered along the chain shown (N, C = ends). [ ]: non-standard residue; d: D form. R8 = C=CCCCCCC[C@@](C)(N)C(=O)O; Cba = N[C@@H](CC1CCC1)C(=O)O; S5 = C=CCCC[C@](C)(N)C(=O)O; Nle = CCCC[C@H](N)C(=O)O

Assays:
[1] = molecular target: MDM2 (Homo sapiens, UniProt Q00987); experiment: Competitive fluorescence polarization assay for MDM2; type: binding; conditions: competitive FP assay, MDM2; for IC50: read-out: IC50 (MDM2); for Ki: read-out: Ki (MDM2)
[2] = molecular target: T1, MDMX (Homo sapiens, UniProt O15151); experiment: Competitive fluorescence polarization assay for MDMX; type: binding; conditions: competitive FP assay; for IC50: read-out: IC50 (MDMX); for Ki: read-out: Ki (MDMX)
T1 sequence (O15151 1-125): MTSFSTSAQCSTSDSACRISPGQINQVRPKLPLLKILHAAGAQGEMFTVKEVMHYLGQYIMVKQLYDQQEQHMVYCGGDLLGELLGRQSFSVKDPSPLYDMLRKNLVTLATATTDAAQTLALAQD

Sequence of MDM2 (Q00987 1-125): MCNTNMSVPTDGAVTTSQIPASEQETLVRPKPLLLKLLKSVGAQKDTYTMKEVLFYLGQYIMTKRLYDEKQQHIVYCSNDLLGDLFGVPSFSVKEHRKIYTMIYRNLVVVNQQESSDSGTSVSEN

Compound | IC50 [1] [nM] | Ki [1] [nM] | IC50 [2] [nM] | Ki [2] [nM]
CC(=O)N[C@@H](CC(C)C)C(=O)N[C@H](C(=O)N[C@@H](Cc1ccccc1)C(=O)N[C@]1(C)CCCCCCC=CCCC[C@@](C)(C(=O)N[C@@H](CO)C(=O)N[C@@H](C)C(=O)N[C@@H](C)C(N)=O)NC(=O)[C@H](CC2CCC2)NC(=O)[C@H](CCCNC(=N)N)NC(=O)[C@H](C)NC(=O)[C@H](Cc2c[nH]c3ccccc23)NC(=O)[C@H](Cc2ccc(O)cc2)NC(=O)[C@H](CCC(=O)O)NC1=O)[C@@H](C)O [compound 363] (Ac-LTF[R8]EYWAR[Cba][S5]SAA-NH2; staple 4-11) | 10 to 100 | < 10 | 10 to 100 | < 10
CC(=O)N[C@@H](CC(C)C)C(=O)N[C@H](C(=O)N[C@@H](Cc1ccccc1)C(=O)N[C@]1(C)CCCCCCC=CCCC[C@@](C)(C(=O)N[C@@H](CCCNC(=N)N)C(=O)N[C@@H](C)C(=O)N[C@@H](C)C(N)=O)NC(=O)[C@H](CC2CCC2)NC(=O)[C@H](CCC(N)=O)NC(=O)[C@H](C)NC(=O)[C@H](Cc2c[nH]c3ccccc23)NC(=O)[C@H](Cc2ccc(O)cc2)NC(=O)[C@H](CCC(=O)O)NC1=O)[C@@H](C)O [compound 364] (Ac-LTF[R8]EYWAQ[Cba][S5]RAA-NH2; staple 4-11) | 10 to 100 | < 10 | 10 to 100 | < 10
CC(=O)N[C@@H](CC(C)C)C(=O)N[C@H](C(=O)N[C@@H](Cc1ccccc1)C(=O)N[C@]1(C)CCCCCCC=CCCC[C@@](C)(C(=O)N[C@@H](CO)C(=O)N[C@@H](CCCNC(=N)N)C(=O)N[C@@H](C)C(N)=O)NC(=O)[C@H](CC2CCC2)NC(=O)[C@H](CCC(N)=O)NC(=O)[C@H](C)NC(=O)[C@H](Cc2c[nH]c3ccccc23)NC(=O)[C@H](Cc2ccc(O)cc2)NC(=O)[C@H](CCC(=O)O)NC1=O)[C@@H](C)O [compound 365] (Ac-LTF[R8]EYWAQ[Cba][S5]SRA-NH2; staple 4-11) | 10 to 100 | < 10 | 10 to 100 | < 10
CC(=O)N[C@@H](CC(C)C)C(=O)N[C@H](C(=O)N[C@@H](Cc1ccccc1)C(=O)N[C@]1(C)CCCCCCC=CCCC[C@@](C)(C(=O)N[C@@H](CO)C(=O)N[C@@H](C)C(=O)N[C@@H](CCCNC(=N)N)C(N)=O)NC(=O)[C@H](CC2CCC2)NC(=O)[C@H](CCC(N)=O)NC(=O)[C@H](C)NC(=O)[C@H](Cc2c[nH]c3ccccc23)NC(=O)[C@H](Cc2ccc(O)cc2)NC(=O)[C@H](CCC(=O)O)NC1=O)[C@@H](C)O [compound 366] (Ac-LTF[R8]EYWAQ[Cba][S5]SAR-NH2; staple 4-11) | 10 to 100 | < 10 | 10 to 100 | 10 to 100
CCCC[C@H](NC(=O)[C@H](C)NC(=O)[C@H](C)NC(=O)[C@]1(C)CCCC=CCCCCCC[C@@](C)(NC(=O)[C@H](Cc2ccccc2)NC(=O)[C@H](C)NC(=O)[C@H](CC(C)C)NC(C)=O)C(=O)N[C@@H](CCC(=O)O)C(=O)N[C@@H](Cc2ccc(O)cc2)C(=O)N[C@@H](Cc2c[nH]c3ccccc23)C(=O)N[C@@H](C)C(=O)N[C@@H](CCC(N)=O)C(=O)N[C@@H](CC(C)C)C(=O)N1)C(=O)N[C@@H](C)C(N)=O [compound 369] (Ac-LAF[R8]EYWAQL[S5]AA[Nle]A-NH2; staple 4-11) | 100 to 1000 | 10 to 100 | 100 to 1000 | 10 to 100
CCCC[C@H](NC(=O)[C@H](C)NC(=O)[C@H](C)NC(=O)[C@]1(C)CCCC=CCCCCCC[C@@](C)(NC(=O)[C@H](Cc2ccccc2)NC(=O)[C@@H](NC(=O)[C@H](C)NC(C)=O)[C@@H](C)O)C(=O)N[C@@H](CCC(=O)O)C(=O)N[C@@H](Cc2ccc(O)cc2)C(=O)N[C@@H](Cc2c[nH]c3ccccc23)C(=O)N[C@@H](C)C(=O)N[C@@H](CCC(N)=O)C(=O)N[C@@H](CC(C)C)C(=O)N1)C(=O)N[C@@H](C)C(N)=O [compound 370] (Ac-ATF[R8]EYWAQL[S5]AA[Nle]A-NH2; staple 4-11) | 10 to 100 | < 10 | 10 to 100 | 10 to 100
